ChEMBL document CHEMBL3885881, “DrugMatrix”

Species: Rattus norvegicus
Assay: DrugMatrix - Regimen: Daily Repeat
Assay type: toxicity, organism-based, Sprague-Dawley
Parameters: regimen Daily Repeat, gender Male, age 6-8 weeks
Conditions: in vivo, sc, route subcutaneous, […]; for ABSOLUTE BASOPHIL / ABSOLUTE EOSINOPHIL / ABSOLUTE LYMPHOCYTE / ABSOLUTE MONOCYTE / ABSOLUTE SEGMENTED NEUTROPHIL / BASOPHIL / EOSINOPHIL / ERYTHROCYTE COUNT / HEMATOCRIT / HEMOGLOBIN / LEUKOCYTE COUNT / LYMPHOCYTE / MEAN CORPUSCULAR HEMOGLOBIN / MEAN CORPUSCULAR HEMOGLOBIN CONCENTRATION / MEAN CORPUSCULAR VOLUME / MONOCYTE / NEUTROPHIL / NUCLEATED RED BLOOD CELLS / PLATELET COUNT: tissue Blood; for ALANINE AMINOTRANSFERASE / ALBUMIN / ALKALINE PHOSPHATASE / ASPARTATE AMINOTRANSFERASE / BLOOD UREA NITROGEN / CARBON DIOXIDE / CHLORIDE / CHOLESTEROL / CREATINE PHOSPHOKINASE / CREATININE / GLUCOSE / LACTATE DEHYDROGENASE / LIPASE / PHOSPHORUS / POTASSIUM / SODIUM / TOTAL BILIRUBIN / TOTAL PROTEIN / URIC ACID: tissue Plasma
[1] = 150 mg/kg, 120 h, dose level High, time 5 day
[2] = 72 h, dose 2.8 mg/Kg, dose level Low, time 3 day
[3] = 120 h, dose 2.8 mg/Kg, dose level Low, time 5 day

With `CN(Cc1ccc(C(C)(C)C)cc1)Cc1cccc2ccccc12` [BUTENAFINE] the “ABSOLUTE BASOPHIL” value [1] was 0 CELLS/uL, the “ABSOLUTE EOSINOPHIL” value [1] was 60.33 CELLS/uL and the “ABSOLUTE LYMPHOCYTE” value [1] was 7925.67 CELLS/uL. For the same molecule, the “ABSOLUTE MONOCYTE” value [1] was 152 CELLS/uL, the “ABSOLUTE SEGMENTED NEUTROPHIL” value [1] was 1062 CELLS/uL and the BASOPHIL [1] was 0%. The EOSINOPHIL [1] was 1%, the “ERYTHROCYTE COUNT” value [1] was 5.24 x10E6/uL and the HEMATOCRIT [1] was 32.57%. The HEMOGLOBIN [1] was 12.97 G/DL, the “LEUKOCYTE COUNT” value [1] was 9.2 x10E3/uL and the LYMPHOCYTE [1] was 85.67%. For the same molecule, the “MEAN CORPUSCULAR HEMOGLOBIN” value [1] was 24.87 pg, the “MEAN CORPUSCULAR HEMOGLOBIN CONCENTRATION” value [1] was 39.93 G/DL and the “MEAN CORPUSCULAR VOLUME” value [1] was 62.17 fL. The MONOCYTE [1] was 1.33%, the NEUTROPHIL [1] was 12% and the “NUCLEATED RED BLOOD CELLS” value [1] was 0 /100WBC. For the same molecule, the “PLATELET COUNT” value [1] was 984.33 x10E3/uL, the “ALANINE AMINOTRANSFERASE” value [1] was 52 u/L and the ALBUMIN [1] was 4.67 G/DL. The “ALKALINE PHOSPHATASE” value [1] was 373 u/L, the “ASPARTATE AMINOTRANSFERASE” value [1] was 90 u/L and the “BLOOD UREA NITROGEN” value [1] was 15.33 mg/dL. For the same molecule, the “CARBON DIOXIDE” value [1] was 31.33 mmol/L, the CHLORIDE [1] was 100.33 MEQ/L and the CHOLESTEROL [1] was 54 mg/dL. For the same molecule, the “CREATINE PHOSPHOKINASE” value [1] was 434 u/L, the CREATININE [1] was 0.24 mg/dL and the GLUCOSE [1] was 159.67 mg/dL. The “LACTATE DEHYDROGENASE” value [1] was 385.67 u/L, the LIPASE [1] was 12.33 u/L and the PHOSPHORUS [1] was 15.13 mg/dL. For the same molecule, the POTASSIUM [1] was 6.75 MEQ/L, the SODIUM [1] was 146.63 MEQ/L and the “TOTAL BILIRUBIN” value [1] was 0.3 mg/dL. For the same molecule, the “TOTAL PROTEIN” value [1] was 6.5 G/DL, the “URIC ACID” value [1] was 2.2 mg/dL and the “ABSOLUTE BASOPHIL” value [2] was 0 CELLS/uL. The “ABSOLUTE EOSINOPHIL” value [2] was 44.33 CELLS/uL, the “ABSOLUTE LYMPHOCYTE” value [2] was 13110.67 CELLS/uL and the “ABSOLUTE MONOCYTE” value [2] was 225.33 CELLS/uL. For the same molecule, the “ABSOLUTE SEGMENTED NEUTROPHIL” value [2] was 1586.33 CELLS/uL, the BASOPHIL [2] was 0% and the EOSINOPHIL [2] was 0.33%. The “ERYTHROCYTE COUNT” value [2] was 5.44 x10E6/uL, the HEMATOCRIT [2] was 35.13% and the HEMOGLOBIN [2] was 13.83 G/DL. For the same molecule, the “LEUKOCYTE COUNT” value [2] was 14.97 x10E3/uL, the LYMPHOCYTE [2] was 87.33% and the “MEAN CORPUSCULAR HEMOGLOBIN” value [2] was 25.4 pg. The “MEAN CORPUSCULAR HEMOGLOBIN CONCENTRATION” value [2] was 39.37 G/DL, the “MEAN CORPUSCULAR VOLUME” value [2] was 64.57 fL and the MONOCYTE [2] was 1.33%. For the same molecule, the NEUTROPHIL [2] was 11%, the “NUCLEATED RED BLOOD CELLS” value [2] was 0 /100WBC and the “PLATELET COUNT” value [2] was 1247.33 x10E3/uL. The “ALANINE AMINOTRANSFERASE” value [2] was 51.67 u/L, the ALBUMIN [2] was 4.23 G/DL and the “ALKALINE PHOSPHATASE” value [2] was 485 u/L. The “ASPARTATE AMINOTRANSFERASE” value [2] was 87 u/L, the “BLOOD UREA NITROGEN” value [2] was 14.67 mg/dL and the “CARBON DIOXIDE” value [2] was 28.67 mmol/L. The CHLORIDE [2] was 102 MEQ/L, the CHOLESTEROL [2] was 81 mg/dL and the “CREATINE PHOSPHOKINASE” value [2] was 255.33 u/L. The CREATININE [2] was 0.2 mg/dL, the GLUCOSE [2] was 140.33 mg/dL and the “LACTATE DEHYDROGENASE” value [2] was 340.33 u/L. It also gave an LIPASE [2] of 9.67 u/L, a PHOSPHORUS [2] of 12.73 mg/dL and a POTASSIUM [2] of 7.04 MEQ/L. For the same molecule, the SODIUM [2] was 146.23 MEQ/L, the “TOTAL BILIRUBIN” value [2] was 0.23 mg/dL and the “TOTAL PROTEIN” value [2] was 6.03 G/DL. The “URIC ACID” value [2] was 1.43 mg/dL, the “ABSOLUTE BASOPHIL” value [3] was 0 CELLS/uL and the “ABSOLUTE EOSINOPHIL” value [3] was 0 CELLS/uL. For the same molecule, the “ABSOLUTE LYMPHOCYTE” value [3] was 12003.67 CELLS/uL, the “ABSOLUTE MONOCYTE” value [3] was 90 CELLS/uL and the “ABSOLUTE SEGMENTED NEUTROPHIL” value [3] was 1073 CELLS/uL. The BASOPHIL [3] was 0%, the EOSINOPHIL [3] was 0% and the “ERYTHROCYTE COUNT” value [3] was 5.4 x10E6/uL. The HEMATOCRIT [3] was 34.57%, the HEMOGLOBIN [3] was 13.8 G/DL and the “LEUKOCYTE COUNT” value [3] was 13.17 x10E3/uL. The LYMPHOCYTE [3] was 91%, the “MEAN CORPUSCULAR HEMOGLOBIN” value [3] was 25.6 pg and the “MEAN CORPUSCULAR HEMOGLOBIN CONCENTRATION” value [3] was 39.97 G/DL. The “MEAN CORPUSCULAR VOLUME” value [3] was 64 fL, the MONOCYTE [3] was 0.67% and the NEUTROPHIL [3] was 8.33%. For the same molecule, the “NUCLEATED RED BLOOD CELLS” value [3] was 0 /100WBC, the “PLATELET COUNT” value [3] was 1261 x10E3/uL and the “ALANINE AMINOTRANSFERASE” value [3] was 42.67 u/L. For the same molecule, the ALBUMIN [3] was 4.27 G/DL, the “ALKALINE PHOSPHATASE” value [3] was 339.33 u/L and the “ASPARTATE AMINOTRANSFERASE” value [3] was 85.33 u/L. For the same molecule, the “BLOOD UREA NITROGEN” value [3] was 16.67 mg/dL, the “CARBON DIOXIDE” value [3] was 32.67 mmol/L and the CHLORIDE [3] was 104.67 MEQ/L. For the same molecule, the CHOLESTEROL [3] was 68.33 mg/dL, the “CREATINE PHOSPHOKINASE” value [3] was 102 u/L and the CREATININE [3] was 0.21 mg/dL. The GLUCOSE [3] was 147.67 mg/dL, the “LACTATE DEHYDROGENASE” value [3] was 96.33 u/L and the LIPASE [3] was 8.67 u/L. It also gave a PHOSPHORUS [3] of 14.27 mg/dL, a POTASSIUM [3] of 7.04 MEQ/L and an SODIUM [3] of 150.5 MEQ/L. For the same molecule, the “TOTAL BILIRUBIN” value [3] was 0.2 mg/dL, the “TOTAL PROTEIN” value [3] was 6.33 G/DL and the “URIC ACID” value [3] was 1.7 mg/dL.
